Results taken from article PMC10648349, “Aromatic Diboronic Acids as Effective KPC/AmpC Inhibitors” (Molecules, 2023).
In brackets after ≈: the same amount, converted by molar mass. Where two headings read alike, the source gives them in different places.

How the values were obtained:
[1] = test system: E. coli 77 CMY-2-positive; experiment: combination disc test CDT-AmpC; assay type: cell-based; conditions: Escherichia coli, read-out: Diameter of inhibition zone, CAZ-30 disc with agent
[2] = test system: C. parapsilosis ATCC 22019; experiment: antifungal activity (disc-diffusion, MIC, MFC); assay type: cell-based, Candida parapsilosis; conditions: Lodderomyces parapsilosis, ATCC22019; for MIC: fluconazole by Etest; for zone of inhibition at 0.4 mg/disc: 0.4 mg per disc, 9 mm disc (fluconazole 0.025 mg, 6 mm disc), - no zone, read-out: Diameter of inhibition zone
Procedure, shortened: (§1)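 Disc-diffusion (0.4 mg compound per disc, DMSO solutions), MIC, and MBC for bacteria or MFC for yeasts, run per EUCAST and CLSI recommendations. References: nitrofurantoin for Gram-negative rods, linezolid for Gram-positive bacteria, fluconazole for fungi.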

S. cerevisiae ATCC 9763 = experiment: antifungal activity (disc-diffusion, MIC, MFC); assay type: cell-based; conditions: Saccharomyces cerevisiae, ATCC9763; for MIC: fluconazole by Etest; for zone of inhibition at 0.4 mg/disc: 0.4 mg per disc, 9 mm disc (fluconazole 0.025 mg, 6 mm disc), - no zone, read-out: Diameter of inhibition zone
Procedure, shortened: as §1

C. albicans ATCC 90028 = experiment: antifungal activity (disc-diffusion, MIC, MFC); assay type: cell-based; conditions: Candida albicans, ATCC90028; for MIC: fluconazole by Etest
Procedure, shortened: as §1

C. tropicalis IBA 171 = experiment: antifungal activity (disc-diffusion, MIC, MFC); assay type: cell-based; conditions: Candida tropicalis, IBA171; for MIC: fluconazole by Etest
Procedure, shortened: as §1

C. tropicalis ATCC 750 = experiment: antifungal activity (disc-diffusion, MIC, MFC); assay type: cell-based; conditions: Candida tropicalis, ATCC750; for MIC: fluconazole by Etest; for zone of inhibition at 0.4 mg/disc: 0.4 mg per disc, 9 mm disc (fluconazole 0.025 mg, 6 mm disc), - no zone, read-out: Diameter of inhibition zone
Procedure, shortened: as §1

[3] = test system: C. guilliermondii IBA 155; experiment: antifungal activity (disc-diffusion, MIC, MFC); assay type: cell-based, Candida guilliermondii; conditions: Meyerozyma guilliermondii, IBA155; for MIC: fluconazole by Etest; for zone of inhibition at 0.4 mg/disc: 0.4 mg per disc, 9 mm disc (fluconazole 0.025 mg, 6 mm disc), - no zone, read-out: Diameter of inhibition zone
Procedure, shortened: as §1

[4] = test system: E. coli 76 KPC-2-positive; experiment: checkerboard microdilution, antibiotic plus tested agent; assay type: cell-based, Escherichia coli
Procedure, shortened: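 Chequerboard layout: tested agent in three two-fold steps (4–16 mg/L) crossed with seven β-lactam dilutions (1–64 mg/L), meropenem for KPC strains and ceftazidime for the cAmpC strain. FICI from first non-growth wells, off-scale MICs raised one doubling; ≤0.5 counts as synergy, >4 antagonism.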

[5] = test system: K. pneumoniae 83 KPC-3-positive, CTX-M-3-positive; experiment: as above; assay type: cell-based, Klebsiella pneumoniae
Description: (§2) To examine the ability of tested agents to inhibit various carbapenemases and AmpC-enzymes, their synergy with antibiotics against β-lactamase-producing strains was assessed by checkerboard microdilution assay, with slight modification. Checkerboards were prepared in microtiter plates, with seven two-fold dilutions of β-lactams (1–64 mg/L) in the rows and three two-fold dilutions of tested agents and PBA (4–16 mg/L) in the columns. Tested agents’ concentrations were limited to the concentrations at which the newest commercially available BLIs (vaborbactam, relebactam, and avibactam) are used in susceptibility testing. Plates were inoculated and incubated as in the MIC microdilution assay. Parallel, MICs of tested agents and PBA alone were determined by the microdilution assay. Following the incubation, antibiotic MICs in the presence of each agent’s concentration were determined. Moreover, for the first well without growth found in each checkerboard row and column along the growth/non-growth interface, the fractional inhibitory concentration index (FICI) was calculated using the formula below:FICI = [(MIC of antibiotic in combination)/(MIC of antibiotic alone)] + [(MIC of the tested agent in combination)/(MIC of tested agent alone)].
(§3) For calculations, all off-scale MICs were converted to the next-highest doubling concentration. Subsequently, both the average and the lowest FICI were interpreted. The interpretation was as follows: FICI ≤ 0.5, synergy; 0.5 < FICI ≤ 4, indifference and FICI > 4, antagonism. Primarily, examined combinations consisted of meropenem (Pol-Aura, Morag, Poland) plus tested agents against carbapenemases-producing strains and ceftazidime (Pol-Aura, Morag, Poland) plus tested agents against AmpC-producing strains. For agents that reduced meropenem MIC at least 4-fold for at least two tested strains, similar assays were performed with imipenem (Pol-Aura, Morag, Poland) and ertapenem (Pol-Aura, Morag, Poland).

[6] = test system: K. pneumoniae ATCC BAA-1705 KPC-2-positive; experiment: as above; assay type: cell-based, Klebsiella pneumoniae
Description: as §2, §3

[7] = test system: K. pneumoniae 81 KPC-3-positive; experiment: as above; assay type: cell-based, Klebsiella pneumoniae
Description: as §2, §3

## OB(O)c1ccsc1B(O)O [5a, thiophene-2,3-diboronic acid]
[1]; agent 0.3 mg per disc
  zone of inhibition at 300 µg/disc: 20 mm
[2]
  MIC: > 400 µg/mL
S. cerevisiae ATCC 9763
  MIC: > 400 µg/mL
C. albicans ATCC 90028
  MIC: 400 µg/mL (≈ 2330 µM)
C. tropicalis IBA 171
  MIC: > 400 µg/mL
C. tropicalis ATCC 750
  MIC: > 400 µg/mL
[3]
  MIC: > 400 µg/mL

## OB(O)c1ccccc1 [PBA, phenylboronic acid, reference compound]
[4]
  Average FICI with ERT: 0.35
  Average FICI with IMI: 0.22
  Average FICI with MEM: 0.26
  The lowest FICI with ERT: 0.26
  The lowest FICI with IMI: 0.15
  The lowest FICI with MEM: 0.26
[5]
  Average FICI with ERT: 0.51
  Average FICI with IMI: 0.68
  Average FICI with MEM: 0.35
  The lowest FICI with ERT: 0.51
  The lowest FICI with IMI: 0.51
  The lowest FICI with MEM: 0.26
[6]
  Average FICI with ERT: 0.85
  Average FICI with IMI: 0.43
  Average FICI with MEM: 0.43
  The lowest FICI with ERT: 0.52
  The lowest FICI with IMI: 0.27
  The lowest FICI with MEM: 0.27
[7]
  Average FICI with ERT: 0.51
  Average FICI with IMI: 0.43
  Average FICI with MEM: 0.51
  The lowest FICI with ERT: 0.51
  The lowest FICI with IMI: 0.27
  The lowest FICI with MEM: 0.51
[1]
  zone of inhibition at 300 µg/disc: 24 mm

## OB(O)c1ccc(B(O)O)cc1 [1a]
[4]
  Average FICI with ERT: 0.22
  Average FICI with IMI: 0.30
  Average FICI with MEM: 0.31
  The lowest FICI with ERT: 0.15
  The lowest FICI with IMI: 0.15
  The lowest FICI with MEM: 0.15
[5]
  Average FICI with ERT: 0.35
  Average FICI with IMI: 0.35
  Average FICI with MEM: 0.39
  The lowest FICI with ERT: 0.26
  The lowest FICI with IMI: 0.26
  The lowest FICI with MEM: 0.15
[6]
  Average FICI with ERT: 0.43
  Average FICI with IMI: 0.43
  Average FICI with MEM: 0.30
  The lowest FICI with ERT: 0.27
  The lowest FICI with IMI: 0.27
  The lowest FICI with MEM: 0.15
[7]
  Average FICI with ERT: 0.20
  Average FICI with IMI: 0.22
  Average FICI with MEM: 0.24
  The lowest FICI with ERT: 0.08
  The lowest FICI with IMI: 0.15
  The lowest FICI with MEM: 0.08
[1]; agent 0.3 mg per disc
  zone of inhibition at 300 µg/disc: 21 mm
[2]
  MIC: > 400 µg/mL
S. cerevisiae ATCC 9763
  MIC: 400 µg/mL (≈ 2410 µM)
C. albicans ATCC 90028
  MIC: > 400 µg/mL
C. tropicalis IBA 171
  MIC: > 400 µg/mL
C. tropicalis ATCC 750
  MIC: > 400 µg/mL
[3]
  MIC: > 400 µg/mL

## OB(O)c1cccc(B(O)O)c1 [2a]
[1]; agent 0.3 mg per disc
  zone of inhibition at 300 µg/disc: 22 mm
[2]
  MIC: > 400 µg/mL
S. cerevisiae ATCC 9763
  MIC: > 400 µg/mL
C. albicans ATCC 90028
  MIC: 400 µg/mL (≈ 2410 µM)
C. tropicalis IBA 171
  MIC: 400 µg/mL (≈ 2410 µM)
C. tropicalis ATCC 750
  MIC: > 400 µg/mL
[3]
  zone of inhibition at 0.4 mg/disc: 14 mm
  MIC: > 400 µg/mL

## OB(O)c1ccc(B(O)O)c(B(O)O)c1 [4b, benzene-1,2,4-triboronic]
[1]; agent 0.3 mg per disc
  zone of inhibition at 300 µg/disc: 21 mm
[2]
  MIC: > 400 µg/mL
S. cerevisiae ATCC 9763
  MIC: > 400 µg/mL
C. albicans ATCC 90028
  MIC: > 400 µg/mL
C. tropicalis IBA 171
  MIC: > 400 µg/mL
C. tropicalis ATCC 750
  MIC: > 400 µg/mL
[3]
  MIC: > 400 µg/mL

## OB(O)c1ccccc1S [7c, 2-mercaptophenylboronic acid]
[1]; agent 0.3 mg per disc
  zone of inhibition at 300 µg/disc: 16 mm
[2]
  zone of inhibition at 0.4 mg/disc: 29 mm
  MIC: 50 µg/mL (≈ 325 µM)
S. cerevisiae ATCC 9763
  MFC: 25 µg/mL (≈ 162 µM)
  zone of inhibition at 0.4 mg/disc: 34 mm
  MIC: 12.5 µg/mL (≈ 81.2 µM)
C. albicans ATCC 90028
  MFC: 200 µg/mL (≈ 1300 µM)
  MIC: 50 µg/mL (≈ 325 µM)
C. albicans ATCC 90028; 0.4 mg per disc, 9 mm disc (fluconazole 0.025 mg, 6 mm disc), - no zone, read-out: Diameter of inhibition zone
  zone of inhibition at 0.4 mg/disc: 33 mm
C. tropicalis IBA 171
  MFC: 100 µg/mL (≈ 649 µM)
  MIC: 12.5 µg/mL (≈ 81.2 µM)
C. tropicalis ATCC 750
  MFC: 200 µg/mL (≈ 1300 µM)
  zone of inhibition at 0.4 mg/disc: 20 mm
  MIC: 50 µg/mL (≈ 325 µM)
[3]
  MFC: 200 µg/mL (≈ 1300 µM)
  zone of inhibition at 0.4 mg/disc: 40 mm
  MIC: 25 µg/mL (≈ 162 µM)

## OB(O)c1cccc(F)c1B(O)O [3b]
[1]; agent 0.3 mg per disc
  zone of inhibition at 300 µg/disc: 25 mm
[2]
  MIC: 200 µg/mL (≈ 1090 µM)
S. cerevisiae ATCC 9763
  zone of inhibition at 0.4 mg/disc: 13 mm
  MIC: 100 µg/mL (≈ 544 µM)
C. albicans ATCC 90028
  MIC: 400 µg/mL (≈ 2180 µM)
C. tropicalis IBA 171
  MIC: 200 µg/mL (≈ 1090 µM)
C. tropicalis ATCC 750
  MIC: 200 µg/mL (≈ 1090 µM)
[3]
  MIC: 400 µg/mL (≈ 2180 µM)

## OB(O)c1cc(C(F)(F)F)cc(B(O)O)c1F [2e]
[1]; agent 0.3 mg per disc
  zone of inhibition at 300 µg/disc: 19 mm
[2]
  MIC: 400 µg/mL (≈ 1590 µM)
S. cerevisiae ATCC 9763
  MIC: > 400 µg/mL
C. albicans ATCC 90028
  MIC: 400 µg/mL (≈ 1590 µM)
C. tropicalis IBA 171
  MIC: 400 µg/mL (≈ 1590 µM)
C. tropicalis ATCC 750
  MIC: > 400 µg/mL
[3]
  zone of inhibition at 0.4 mg/disc: 14 mm
  MIC: > 400 µg/mL

## OB(O)c1ccc(C(F)(F)F)cc1B(O)O [3e]
[1]; agent 0.3 mg per disc
  zone of inhibition at 300 µg/disc: 17 mm
[2]
  zone of inhibition at 0.4 mg/disc: 30 mm
  MIC: 12.5 µg/mL (≈ 53.5 µM)
S. cerevisiae ATCC 9763
  zone of inhibition at 0.4 mg/disc: 23 mm
  MIC: 50 µg/mL (≈ 214 µM)
C. albicans ATCC 90028
  MFC: 400 µg/mL (≈ 1710 µM)
  MIC: 6.25 µg/mL (≈ 26.7 µM)
C. tropicalis IBA 171
  MFC: 400 µg/mL (≈ 1710 µM)
  MIC: 6.25 µg/mL (≈ 26.7 µM)
C. tropicalis ATCC 750
  zone of inhibition at 0.4 mg/disc: 28 mm
  MIC: 12.5 µg/mL (≈ 53.5 µM)
[3]
  MFC: 400 µg/mL (≈ 1710 µM)
  zone of inhibition at 0.4 mg/disc: 40 mm
  MIC: 3.12 µg/mL (≈ 13.3 µM)
